Assay results reported in the supplement of paper PMC10307832.

Key:
Assay in all cases: relative viability (nuclei count vs DMSO), 5 days (fraction); higher = more cells survive
201T = test system: 201T
In short: (§1)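 One day after seeding in 1536-well plates, lung cancer cell lines were dosed by pin tool. Dosing was either single-drug or a fixed anchor-drug dose plus five library-drug doses (not always all listed) in √10 steps. After 5 days, nuclei were stained in one fix-and-stain step and counted on 4× images, and relative viability is the nuclei count of treated wells over that of vehicle wells, given as the median of duplicate plates.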

A-427 = test system: A-427
In short: as §1

ABC-1 = test system: ABC-1
In short: as §1

BEN = test system: BEN
In short: as §1

CAL-12T = test system: CAL-12T
In short: as §1

H3255 = test system: H3255
In short: as §1

HCC-15 = test system: HCC-15
In short: as §1

LC-2-ad = test system: LC-2-ad
In short: as §1

LCLC-97TM1 = test system: LCLC-97TM1
In short: as §1

NCI-H1650 = test system: NCI-H1650
In short: as §1

NCI-H1651 = test system: NCI-H1651
In short: as §1

NCI-H1792 = test system: NCI-H1792
In short: as §1

NCI-H1915 = test system: NCI-H1915
In short: as §1

NCI-H1944 = test system: NCI-H1944
In short: as §1

NCI-H2023 = test system: NCI-H2023
In short: as §1

NCI-H2087 = test system: NCI-H2087
In short: as §1

NCI-H460 = test system: NCI-H460
In short: as §1

NCI-H520 = test system: NCI-H520
In short: as §1

NCI-H596 = test system: NCI-H596
In short: as §1

NCI-H650 = test system: NCI-H650
In short: as §1

NCI-H661 = test system: NCI-H661
In short: as §1

NCI-H727 = test system: NCI-H727
In short: as §1

PC-3 [JPC-3] = test system: PC-3 [JPC-3]
In short: as §1

Clc1ccc(Nc2nnc(Cc3ccncc3)c3ccccc23)cc1 [Vatalanib] + CS(=O)(=O)CCNCc1ccc(-c2ccc3ncnc(Nc4ccc(OCc5cccc(F)c5)c(Cl)c4)c3c2)o1 [Lapatinib] (partner 2 µM)
relative viability (201T; first compound 0.04 µM): 1.02
relative viability (201T; first compound 0.1265 µM): 0.989
relative viability (201T; first compound 0.4 µM): 1.04
relative viability (201T; first compound 1.265 µM): 1.05
relative viability (201T; first compound 4 µM): 1.07
relative viability (A-427; first compound 0.04 µM): 1.01
relative viability (A-427; first compound 0.1265 µM): 0.938
relative viability (A-427; first compound 0.4 µM): 0.769
relative viability (A-427; first compound 1.265 µM): 0.972
relative viability (A-427; first compound 4 µM): 1.11
relative viability (ABC-1; first compound 0.04 µM): 1.33
relative viability (ABC-1; first compound 0.1265 µM): 0.931
relative viability (ABC-1; first compound 0.4 µM): 1.16
relative viability (ABC-1; first compound 1.265 µM): 1.23
relative viability (ABC-1; first compound 4 µM): 1.05
relative viability (BEN; first compound 0.04 µM): 0.79
relative viability (BEN; first compound 0.1265 µM): 0.554
relative viability (BEN; first compound 0.4 µM): 0.806
relative viability (BEN; first compound 1.265 µM): 0.657
relative viability (BEN; first compound 4 µM): 0.767
relative viability (CAL-12T; first compound 0.04 µM): 0.63
relative viability (CAL-12T; first compound 0.1265 µM): 0.668
relative viability (CAL-12T; first compound 1.265 µM): 0.678
relative viability (CAL-12T; first compound 4 µM): 0.633
relative viability (H3255; first compound 0.04 µM): 0.261
relative viability (H3255; first compound 0.1265 µM): 0.226
relative viability (H3255; first compound 0.4 µM): 0.287
relative viability (H3255; first compound 1.265 µM): 0.247
relative viability (H3255; first compound 4 µM): 0.263
relative viability (HCC-15; first compound 0.04 µM): 0.874
relative viability (HCC-15; first compound 0.1265 µM): 0.699
relative viability (HCC-15; first compound 0.4 µM): 0.853
relative viability (HCC-15; first compound 1.265 µM): 0.825
relative viability (HCC-15; first compound 4 µM): 0.837
relative viability (LC-2-ad; first compound 0.04 µM): 0.977
relative viability (LC-2-ad; first compound 0.1265 µM): 0.865
relative viability (LC-2-ad; first compound 0.4 µM): 0.952
relative viability (LC-2-ad; first compound 1.265 µM): 0.936
relative viability (LC-2-ad; first compound 4 µM): 0.901
relative viability (LCLC-97TM1; first compound 0.04 µM): 0.818
relative viability (LCLC-97TM1; first compound 0.1265 µM): 0.847
relative viability (LCLC-97TM1; first compound 0.4 µM): 0.841
relative viability (LCLC-97TM1; first compound 1.265 µM): 0.897
relative viability (LCLC-97TM1; first compound 4 µM): 0.971
relative viability (NCI-H1650; first compound 0.04 µM): 0.799
relative viability (NCI-H1650; first compound 0.1265 µM): 0.644
relative viability (NCI-H1650; first compound 0.4 µM): 0.959
relative viability (NCI-H1650; first compound 1.265 µM): 0.752
relative viability (NCI-H1650; first compound 4 µM): 0.63
relative viability (NCI-H1651; first compound 0.04 µM): 0.921
relative viability (NCI-H1651; first compound 0.1265 µM): 0.868
relative viability (NCI-H1651; first compound 0.4 µM): 0.947
relative viability (NCI-H1651; first compound 1.265 µM): 0.899
relative viability (NCI-H1651; first compound 4 µM): 0.835
relative viability (NCI-H1792; first compound 0.04 µM): 0.892
relative viability (NCI-H1792; first compound 0.1265 µM): 0.852
relative viability (NCI-H1792; first compound 0.4 µM): 0.966
relative viability (NCI-H1792; first compound 1.265 µM): 0.87
relative viability (NCI-H1792; first compound 4 µM): 0.877
relative viability (NCI-H1915; first compound 0.04 µM): 0.974
relative viability (NCI-H1915; first compound 0.1265 µM): 0.88
relative viability (NCI-H1915; first compound 0.4 µM): 0.839
relative viability (NCI-H1915; first compound 1.265 µM): 0.93
relative viability (NCI-H1915; first compound 4 µM): 1.01
relative viability (NCI-H1944; first compound 0.04 µM): 0.904
relative viability (NCI-H1944; first compound 0.1265 µM): 0.635
relative viability (NCI-H1944; first compound 0.4 µM): 0.909
relative viability (NCI-H1944; first compound 1.265 µM): 0.804
relative viability (NCI-H1944; first compound 4 µM): 0.784
relative viability (NCI-H2023; first compound 0.04 µM): 0.749
relative viability (NCI-H2023; first compound 0.1265 µM): 0.725
relative viability (NCI-H2023; first compound 0.4 µM): 1.05
relative viability (NCI-H2023; first compound 1.265 µM): 0.681
relative viability (NCI-H2023; first compound 4 µM): 0.736
relative viability (NCI-H2087; first compound 0.04 µM): 1.12
relative viability (NCI-H2087; first compound 0.1265 µM): 1.02
relative viability (NCI-H2087; first compound 0.4 µM): 1.15
relative viability (NCI-H2087; first compound 1.265 µM): 1.09
relative viability (NCI-H2087; first compound 4 µM): 1.12
relative viability (NCI-H460; first compound 0.04 µM): 1.04
relative viability (NCI-H460; first compound 0.1265 µM): 0.848
relative viability (NCI-H460; first compound 0.4 µM): 0.931
relative viability (NCI-H460; first compound 1.265 µM): 0.845
relative viability (NCI-H460; first compound 4 µM): 0.898
relative viability (NCI-H520; first compound 0.04 µM): 0.94
relative viability (NCI-H520; first compound 0.1265 µM): 0.711
relative viability (NCI-H520; first compound 0.4 µM): 0.891
relative viability (NCI-H520; first compound 1.265 µM): 0.741
relative viability (NCI-H520; first compound 4 µM): 0.82
relative viability (NCI-H596; first compound 0.04 µM): 1.07
relative viability (NCI-H596; first compound 0.1265 µM): 1.22
relative viability (NCI-H596; first compound 0.4 µM): 1.14
relative viability (NCI-H596; first compound 1.265 µM): 1.03
relative viability (NCI-H596; first compound 4 µM): 1.16
relative viability (NCI-H650; first compound 0.04 µM): 0.694
relative viability (NCI-H650; first compound 0.1265 µM): 0.784
relative viability (NCI-H650; first compound 1.265 µM): 0.784
relative viability (NCI-H650; first compound 4 µM): 0.911
relative viability (NCI-H661; first compound 0.04 µM): 0.505
relative viability (NCI-H661; first compound 0.1265 µM): 0.384
relative viability (NCI-H661; first compound 0.4 µM): 0.518
relative viability (NCI-H661; first compound 1.265 µM): 0.524
relative viability (NCI-H661; first compound 4 µM): 0.496
relative viability (NCI-H727; first compound 0.04 µM): 0.806
relative viability (NCI-H727; first compound 0.1265 µM): 0.717
relative viability (NCI-H727; first compound 0.4 µM): 0.9
relative viability (NCI-H727; first compound 1.265 µM): 0.709
relative viability (NCI-H727; first compound 4 µM): 1.02
relative viability (PC-3 [JPC-3]; first compound 0.04 µM): 0.49
relative viability (PC-3 [JPC-3]; first compound 0.1265 µM): 0.461
relative viability (PC-3 [JPC-3]; first compound 0.4 µM): 0.448
relative viability (PC-3 [JPC-3]; first compound 1.265 µM): 0.43
relative viability (PC-3 [JPC-3]; first compound 4 µM): 0.442
